Measured values: patent publication US20230414617A1, “PHARMACEUTICAL COMPOSITION COMPRISING ACID-BASE NEUTRALIZATION COMBINATION AND APPLICATION THEREOF” (CHENGDU KUACHANGAOPU MEDICAL TECHNOLOGY CO., LTD., priority 2020, published 2023)

What was measured:
[1] = pH of the study drug aqueous solution; type: physicochemical
sarcoma S180 cell = experiment: Tumor inhibition effect in mice bearing sarcoma S180 cell (Example 2); type: in vivo; conditions: intratumoral injection; for Tumor weight (x ± s): 150 μl/mouse, once every 3 days x3, 5th day after end; for Tumor inhibition rate: vs negative control group 01
Procedure: (§1) In the following examples of the present invention, the co-administration pharmaceutical efficacies of drug A and drug B combination administration was determined by ratio q of actual pharmaceutical efficacy/expected pharmaceutical efficacy according to Zhengjun JIN method, as follows.
In the tumor inhibition effect study, successfully modeled experimental animals (mice bearing sarcoma S180 cell, with an average tumor volume of 314 mm^3) were randomly divided into 2 negative control groups (01, 02) and 9 drug study groups (1-9). […] The negative control and study drugs were administered by intraperitoneal injection (groups 02, 6 and 9) and intratumoral injection (other study groups), respectively. Each group was administered once every 3 days for a total of 3 times, with an injection volume of 150 μl/mouse. On the 5th day after the administration was ended, the animals were euthanized, and the tumor weight was measured after anatomy to the animals. The tumor inhibition rate was calculated from the negative control group of each drug administration mode.

liver tissue = experiment: Tissue necrosis study: necrotic zone of liver tissue after intrahepatic injection (Example 2); type: in vivo, New Zealand Large White rabbits
Procedure: The rabbits were kept on conventional diet after drug administration, euthanized after 1 week, and the necrotic zone of the liver was determined after autopsy. The liver was incised along the center of the necrotic zone, and the extent of the necrotic zone was measured at the largest level, and the maximum and minimum diameters of the necrotic zone were measured respectively. The average diameter of the necrotic zone of liver tissue=(maximum diameter+minimum diameter)/2.

tumor = experiment: Tumor inhibition rate, general statements (chemical ablation study; positive controls); type: in vivo
breast cancer 4T1 cells [2] = experiment: Tumor inhibition, breast cancer 4T1 transplantation tumor (Example 3); type: in vivo, BALB/c mouse; conditions: intratumoral; for Tumor weight (x ± s): 150 μl/mouse, once every 3 days x3, 5th day after end; for Tumor inhibition rate: vs negative control
Procedure: as §1
In an experiment, the test animal was a BALB/c mouse, the modeling cells were breast cancer 4T1 cells, and the transplantation tumor was modeled at 1×10^6 cells/mouse under the skin of the animal's right axilla. […] Each group was administered by intratumoral injection once every 3 days for a total of 3 times, each time at an injection dose of 150 μl/mouse. On the 5th day after the administration was ended, the animals were euthanized, and the tumor weight was determined after anatomy to the animals. The tumor inhibition rate was calculated from the negative control group.

[3] = system: mouse liver cancer Hepa1-6 cells; experiment: Series B: tumor inhibition, Hepa1-6 transplantation tumor in 8-month-old mice (Example 10); type: in vivo; conditions: one intratumoral injection 100 μl/mouse; for r'3d, tumor inhibition rate (tumor volume): day 3; for r'14d, tumor inhibition rate (tumor volume): day 14
Procedure: The animals in series B were modeled in 8-month-old mice as a middle-aged and elderly patient model, which was not consistent with the commonly used young patient model in terms of tumor formation, tumor histomorphology, and body immunocompetence. […] The model animals were randomly divided into 13 groups. Each group was administered once by intratumoral injection according to the drug grouping in Table 11 with an injection volume of 100 μl/mouse.
The actual/expected ratio […] for short-term drug efficacy and the actual/expected ratio q14d for medium-term drug efficacy were calculated based on the drug efficacies (r′3d, […]) at different times (day 3, day 14), respectively.

[4] = system: outer lateral muscle of right leg; experiment: Series A: tissue destruction in normal muscle after intramuscular injection (Example 10); type: in vivo, nude mice; conditions: one intramuscular injection 100 μl/mouse, day 3
Procedure: The test animals were divided into two series, A and B. The animals in series A were non-modeled nude mice, randomly divided into four groups, and were injected with the drugs according to groups 1-4 in Table 11 by intramuscular injection of outer lateral muscle of right leg. Each group was administered once, at an injection volume of 100 μl/mouse. On day 3 after the administration was ended, the animals were euthanized, and the specimens from outer lateral muscle mass of right leg of the nude mice were dissected and taken out, and gross pathological analysis was performed. The muscle sections were measured for distinguishing the area of tissue destruction region in the normal muscle (incomplete necrosis) (T3a) and the area of severe tissue destruction region therein (complete necrosis) […], and the results are shown in Table 11 below.

breast cancer 4T1 cells [5] = experiment: Tumor inhibition, breast cancer 4T1 transplantation tumor (Example 7); type: in vivo, BALB/c mouse; conditions: intratumoral
Procedure: as §1
In an experiment, the test animal was a BALB/c mouse, the modeling cells were breast cancer 4T1 cells, and the transplantation tumor was modeled at 1×10^6 cells/mouse under the skin of the animal's right axilla. […] The negative controls and study drugs were administered intraperitoneally (groups 02, 11 and 15) and intratumorally (other study groups), respectively. All groups were dosed once every 3 days, for a total of 3 times, […], with an injection volume of 150 ul/mouse. On the 5th day after the administration was ended, the animals were euthanized, and the tumor weight was measured after anatomy to the animals. The tumor inhibition rate was calculated from the negative control group.

breast cancer 4T1 cells [6] = experiment: Tumor inhibition, breast cancer 4T1 transplantation tumor (Example 4); type: in vivo, BALB/c mice; conditions: intratumoral
Procedure: as §1
In another experiment, the test animal was BALB/c mice, the modeling cells were breast cancer 4T1 cells, and the transplantation tumor was modeled at 1×10^6 cells/mouse under the skin of the animal's right axilla. Successfully modeled experimental animals (average tumor volume 307 mm^3) were randomly divided into 1 negative control group (group 0) and 13 drug study groups (groups 1-13). […] Each group was administered by intratumoral injection once every 3 days for a total of 3 times, each time at an injection dose of 150 μl/mouse. On the 5th day after the administration was ended, the animals were euthanized, and the tumor weight was measured after anatomy to the animals. The tumor inhibition rate was calculated from the negative control group.

[7] = study drugs of Example 2 (Table 4), aqueous solution
[8] = positive controls, under the conditions of the following examples
[9] = study drugs of Example 3 (Table 5), aqueous solution

[Na+].[OH-] [0.3% NaOH, sodium hydroxide]
pH [1, 7]: 13.3
Tumor weight (x ± s) (sarcoma S180 cell): 1.52 ± 0.22 g
Tumor inhibition rate (sarcoma S180 cell): 31%
Diameter of necrotic zone of liver tissue (r ± s) (liver tissue; rabbit, in vivo): 1.3 ± 0.3 cm

O=c1[nH]cc(F)c(=O)[nH]1 [0.5-1% 5-fluorouracil, 5-fluorouracil]
Tumor inhibition rate (tumor; [8]): ≥ 30%

[Na+].[OH-] [3% NaOH, sodium hydroxide]
Tumor weight (x ± s) (breast cancer 4T1 cells [2]): 1.09 ± 0.25 g
Tumor inhibition rate (breast cancer 4T1 cells [2]): 55%
pH [1, 7]: 13.8
pH ([1]; study drugs of Example 2 (Table 4), aqueous solution, listed as 3% sodium hydroxide): 11.8
pH [1, 9]: 13.7
Tumor weight (x ± s) (sarcoma S180 cell): 1.04 ± 0.21 g
Tumor inhibition rate (sarcoma S180 cell): 53%
r'3d, tumor inhibition rate (tumor volume) [3]: 31.2%
r'14d, tumor inhibition rate (tumor volume) [3]: 2.8%
S3d, area of severe tissue destruction region (complete necrosis) [4]: 18.3 mm^2
T3d, area of tissue destruction region in the normal muscle (incomplete necrosis) [4]: 29.6 mm^2
Diameter of necrotic zone of liver tissue (r ± s) (liver tissue; rabbit, in vivo): 1.8 ± 0.5 cm

O=C([O-])O.[Na+] [7% sodium bicarbonate, sodium bicarbonate]
Tumor weight (x ± s) (breast cancer 4T1 cells [2]): 1.73 ± 0.27 g
Tumor inhibition rate (breast cancer 4T1 cells [2]): 29%
pH [1, 7]: 8.1
pH [1, 9]: 8.1
Tumor weight (x ± s) (sarcoma S180 cell): 1.59 ± 0.20 g
Tumor inhibition rate (sarcoma S180 cell): 28%
r'3d, tumor inhibition rate (tumor volume) [3]: 4.1%
r'14d, tumor inhibition rate (tumor volume) [3]: 3.9%
S3d, area of severe tissue destruction region (complete necrosis) [4]: 0 mm^2
T3d, area of tissue destruction region in the normal muscle (incomplete necrosis) [4]: 0 mm^2

N=C(N)NCCC[C@H](N)C(=O)O [15% arginine, arginine]
pH [1, 7]: 10.9
pH ([1]; study drugs of Example 4 (Table 6), aqueous solution): 11.0
pH ([1]; study drugs of Example 7 (Table 9), aqueous solution): 10.9
Tumor weight (x ± s) (sarcoma S180 cell): 2.01 ± 0.24 g
Tumor inhibition rate (sarcoma S180 cell): 23%
Tumor weight (x ± s) (breast cancer 4T1 cells [5]; 150 ul/mouse, once every 3 days x3, 5th day after end): 1.64 ± 0.28 g
Tumor inhibition rate (breast cancer 4T1 cells [5]; vs negative control): 25%
Diameter of necrotic zone of liver tissue (r ± s) (liver tissue; one intrahepatic injection of 1.0 mL, after 1 week): 0.2 ± 0.1 cm
Tumor weight (x ± s) (breast cancer 4T1 cells [6]; 150 μl/mouse, once every 3 days x3, 5th day after end): 1.74 ± 0.28 g
Tumor inhibition rate (breast cancer 4T1 cells [6]; vs negative control): 23%

CCO [75-99% ethanol, ethanol]
Tumor inhibition rate (tumor; [8]): ≥ 15%

[Na+].[OH-] [sodium hydroxide]
pH ([1]; sodium hydroxide solution before and after neutralization with sodium bicarbonate (e.g.)): 12
Tumor inhibition rate (tumor; chemical ablation study with basifying agents, model not stated): 43%
